Data reported in US6642012B1, “Spectroscopic determination of characteristic of biological material” (priority 1996, dated 2003).

System: Peripheral blood mononuclear cells (PBMC)
Test: FTIR monitoring of lymphocyte activation
Assay type: cell-based, human
Method: Peripheral blood mononuclear cells (PBMC) from two volunteers, isolated using gradient mixtures were twice washed in 0.9% saline and centrifuged. The resulting pellets were resuspended in 1 ml of saline. One half of each sample was activated with phorbol myristate acetate (PMA) and the other half used as a control. After 15 minutes the four portions were desiccated and transferred to a infrared cell for FTIR microanalysis. For each portion six spectra were recorded.

[1] = PMA activated vs non-activated lymphocytes, 15 minutes

For `CCCCCCCCCCCCCC(=O)O[C@@H]1[C@@H](C)[C@@]2(O)[C@@H](C=C(CO)C[C@]3(O)C(=O)C(C)=C[C@@H]23)[C@@H]2C(C)(C)[C@]12OC(C)=O` [PMA, phorbol myristate acetate], which “FTIR spectra of activated vs non-activated lymphocytes” value (PBMC from two volunteers, PMA activation 15 minutes, desiccated, FTIR microanalysis) is on record?
The value was “marked differences”.

And the “amide II band” value (PMA activated lymphocytes, 15 minutes)?
Its value is “multitude of shoulder peaks”.

What about the “C—O stretch of fatty acyl groups (1400 cm-1) and C—O stretches of glycogen bands at 1058 and 1038 cm-1” value [1] of the same compound?
Its value is “much more intense”.

What about the “amide I β-pleated sheet component band at 1634 cm-1” value [1] of the same compound?
Its value is “increase”.

And the “α-helical amide I band” value [1]?
Its value is “reduction”.
